In patent EP1287826A1, “A crystalline form of the free base of Amlodipine” (Pfizer Limited, priority 2001, dated 2003):

Format: physicochemical
Method: The stability of crystalline amlodipine free base bulk and amlodipine free base tablets was assessed by storing samples for up to 6 or 12 weeks at 25°C/60%RH, 40°C/75%RH and 50°C/20%RH. Changes were monitored using a stability-indicating HPLC method. Results were calculated by normalised peak area (npa). Degradants were identified by comparison of their relative retention times against impurity standards.

stability: stability was demonstrated
SMILES: CCOC(=O)C1=C(COCCN)NC(C)=C(C(=O)OC)C1c1ccccc1Cl (stereo not shown) [crystalline amlodipine free base, 2-[(2-aminoethoxy)]-methyl-4-(2-chlorophenyl)-3-ethoxycarbonyl-5-methoxycarbonyl-6-methyl-1,4-dihydropyridine]
